In brackets after ≈: the same amount, converted by molar mass. Where two headings read alike, the source gives them in different places.
Experiments:
[1] = tested on: 6 Hz-induced psychomotor seizures; experiment: 6 Hz psychomotor seizure test; assay type: in vivo, mice; settings: for ED50: Mus musculus, ip; for Protective index (TD50/ED50): TD50 chimney test / ED50 6 Hz test
Method: All experiments on animals were performed in accordance with EU Directive 2010/63/EU for animal experiments and complied with the ARRIVE guidelines. Ethics approval for animal experimentations was obtained from the Local Ethics Committee (Lublin, Poland, approval number: 65/2018). Psychomotor seizures in mice were evoked by current (6 Hz, 0.2 ms rectangular pulse width, 32 mA, 3 s duration) generated by an S48 Square Pulse Stimulator and CCU1 Constant Current Unit (Grass Technologies, West Warwick, RI, USA). After application of ophthalmic anaesthetic (0.5% tetracaine hydrochloride) to the mice corneas, the animals underwent corneal stimulation and were placed separately in plexiglas cages (25 × 15 × 10 cm) for the observation of the presence or absence of psychomotor seizures. The animals were administered with increasing doses of TP-10, TP-315, TP-427, and the anticonvulsant activity of each compound was evaluated as the ED50 value (median effective dose of the drug, which protects 50% of mice against convulsions) calculated using the log-probit method of Litchfield and Wilcoxon[18].

DPPH assay = settings: methanol, 30 min, 517 nm
Method: Free radical scavenging activity of compounds TP-10, TP-315 and TP-427 was evaluated using DPPH assay. Briefly, 25 µl of 0.2 mM of methanolic solution of DPPH ([…]) was mixed with 175 µl of varying concentrations (0.002–4.5 mg/ml) of the studied compounds dissolved in methanol. Reaction mixtures in the 96-well plate were incubated in the dark at room temperature for 30 min. The absorbance was measured at 517 nm against blank (which consists of all reagents without the investigated compounds) using a microplate reader (Epoch, BioTek Instruments, Inc., Winooski, VT, USA). As a reference, the antioxidant activity of vitamin C was evaluated. Each concentration of the compounds was assayed at least six times. The results were expressed as the IC50 (µg/ml) ± SD calculated using the linear regression analysis.

hCA I = biological target: T1, hCA I (Homo sapiens, UniProt P00915); experiment: Carbonic anhydrase inhibition, stopped flow CO2 hydration; assay type: biochemical; settings: 1 h incubation
T1 construct: made in house
Method: Carbonic anhydrase catalysed CO2 hydration activity was measured using an Applied Photophysics stopped-flow spectrometer. […] The uncatalyzed rates were determined in the same manner and subtracted from the total observed rates. Stock solutions of inhibitor (0.1 mM) were prepared in distilled-deionized water and dilutions up to 0.01 nM were done thereafter with the assay buffer. […] The inhibition constants were obtained by non-linear least-squares methods using PRISM 3 and the Cheng–Prusoff equation and represent the mean from at least three different determinations. All CA isoforms were recombinant ones obtained in-house[21]^,[22].

HEK-293 = tested on: HEK-293; parameters: method as in PMID 30594731, PMID 28824309; settings: 10 µg/ml; cited from earlier work
HepG2 = tested on: HepG2; parameters: method as in PMID 30594731, PMID 28824309; settings: 10 µg/ml; cited from earlier work
motor coordination = settings: cited from earlier work; for TD50 ± SEM: chimney test
[2] = mice, i.p., 32 mA, pretreatment time 15 min, read-out: ED50 ± SEM
[3] = mice, i.p., 32 mA, pretreatment time 30 min, read-out: ED50 ± SEM
[4] = mice, i.p., 32 mA, pretreatment time 60 min, read-out: ED50 ± SEM
[5] = mice, i.p., 32 mA, pretreatment time 120 min, read-out: ED50 ± SEM
[6] = mice, i.p., pretreatment times 15 to 120 min, read-out: ED50, range over the time-course

T1 sequence (P00915 whole entry): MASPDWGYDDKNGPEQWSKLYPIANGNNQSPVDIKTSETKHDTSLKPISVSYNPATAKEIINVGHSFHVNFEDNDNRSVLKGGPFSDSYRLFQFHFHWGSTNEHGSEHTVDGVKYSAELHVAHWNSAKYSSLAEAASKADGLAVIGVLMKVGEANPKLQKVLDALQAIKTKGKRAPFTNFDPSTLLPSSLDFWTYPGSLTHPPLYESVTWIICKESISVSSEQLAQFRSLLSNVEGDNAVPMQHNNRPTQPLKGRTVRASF

Cc1ccc(-n2c(-c3cccc(Cl)c3)n[nH]c2=S)cc1 [TP-10, 5-(3-chlorophenyl)-4-(4-methylphenyl)-2,4-dihydro-3H-1,2,4-triazole-3-thione]
ED50 ([1]; 0.5 h, within the first 30 min after i.p. administration, read-out: ED50 (constant activity)): ~60 mg/kg | ED50 [1, 2]: 62.6 ± 13.2 mg/kg | ED50 [1, 3]: 61.1 ± 9.7 mg/kg | ED50 [1, 4]: 170 ± 18.5 mg/kg | ED50 [1, 5]: 168 ± 17.4 mg/kg | ED50 [1, 6]: 61.1 to 170 mg/kg | Protective index (TD50/ED50) ([1]; pretreatment time 15 min): 5.4 | Protective index (TD50/ED50) ([1]; pretreatment time 30 min): 5.5 | Protective index (TD50/ED50) ([1]; pretreatment time 60 min): 2.0 | Protective index (TD50/ED50) ([1]; pretreatment time 120 min): 2.4 | Peak of anticonvulsant activity (time after i.p. administration) ([1]; mice, i.p.): 30 min | IC50 ± SD, DPPH (DPPH assay): 31.72 ± 1.05 mg/L (≈ 105 µM) | Ki (hCA I): 2.19 µM

CCCCCCn1c(-c2cccc(Cl)c2)n[nH]c1=S [TP-315, 5-(3-chlorophenyl)-4-hexyl-2,4-dihydro-3H-1,2,4-triazole-3-thione]
ED50 [1, 2]: 61.3 ± 10.1 mg/kg | ED50 [1, 3]: 59.7 ± 6.8 mg/kg | ED50 [1, 4]: 68.1 ± 11 mg/kg | ED50 [1, 5]: 136 ± 18.3 mg/kg | ED50 [1, 6]: 59.7 to 136 mg/kg | Protective index (TD50/ED50) ([1]; pretreatment time 15 min): 7.6 | Protective index (TD50/ED50) ([1]; pretreatment time 30 min): 7.8 | Protective index (TD50/ED50) ([1]; pretreatment time 60 min): 6.7 | Protective index (TD50/ED50) ([1]; pretreatment time 120 min): 3.3 | Peak of anticonvulsant activity (time after i.p. administration) ([1]; mice, i.p.): 30 min | IC50 ± SD, DPPH (DPPH assay): 56.87 ± 0.70 mg/L (≈ 192 µM) | toxicity for HEK-293 cells (HEK-293): non-toxic | toxicity for HepG2 cells (HepG2): non-toxic

CCCCCCn1c(Cc2cccc(Cl)c2)n[nH]c1=S [TP-427, 5-(3-chlorobenzyl)-4-hexyl-2,4-dihydro-3H-1,2,4-triazole-3-thione]
ED50 [1, 2]: 40.9 ± 6.4 mg/kg | ED50 [1, 3]: 46.6 ± 8.2 mg/kg | ED50 [1, 4]: 51.6 ± 6.9 mg/kg | ED50 [1, 5]: 64.9 ± 5.6 mg/kg | ED50 [1, 6]: 40.9 to 64.9 mg/kg | Protective index (TD50/ED50) ([1]; pretreatment time 15 min): >24.4 | Protective index (TD50/ED50) ([1]; pretreatment time 30 min): >21.5 | Protective index (TD50/ED50) ([1]; pretreatment time 60 min): 10.5 | Protective index (TD50/ED50) ([1]; pretreatment time 120 min): 8.5 | Peak of anticonvulsant activity (time after i.p. administration) ([1]; mice, i.p.): 15 min | IC50 ± SD, DPPH (DPPH assay): 110.51 ± 2.12 mg/L (≈ 357 µM) | Ki (hCA I): > 100 µM | toxicity for HEK-293 cells (HEK-293): non-toxic | toxicity for HepG2 cells (HepG2): non-toxic | TD50 (motor coordination; Figure 1, pretreatment time not given): > 1000 mg/kg | TD50 ± SEM (motor coordination; pretreatment time 15 min): >1000 mg/kg | TD50 ± SEM (motor coordination; pretreatment time 30 min): >1000 mg/kg
